Assay results taken from publication PMC9148072, “Design, Cytotoxicity and Antiproliferative Activity of 4-Amino-5-methyl-thieno[2,3-d]pyrimidine-6-carboxylates against MFC-7 and MDA-MB-231 Breast Cancer Cell Lines” (Molecules, 2022).
≈ marks a conversion by molar mass, not a printed value. Read-outs that look alike come from different tables or passages of the source.

Legend:
MCF-7 cell line = assay: MTT antiproliferative assay, MCF-7; assay type: cell-based, human; settings: for IC50: Homo sapiens, MCF7
Description: (§1) The compounds were studied for antiproliferative activity by standard MTT dye-reduction assay. Cell cultures from MCF-10A, MCF-7 and MDAMB-231 cell lines were incubated for 72 h in the presence of the tested substances in a wide range of concentrations. At the MCF-10A and MDA-MB-231 cell lines, compound 4 was applied in the range from 0.5 to 100 µg/mL, and all others from 4 to 1000 µg/mL.
The MCF-7 cell line was treated with compounds 2, 3 and 4 at concentrations from 0.5 to 100 µg/mL, and all others from 4 to 1000 µg/mL. The antiproliferative activity expressed in % relative to the negative control (untreated cells accepted as a 100% viable or 0% antiproliferative activity) was determined and shown on Figure 6.
(§2) All breast cell lines (MCF-10A, MCF-7 and MDA-MB-231) were purchased from the American Type Culture Collection—ATCC (Manassas, VA, USA). The MCF-7 and MDA-MB-231 were cultivated in Dulbecco’s Modified Eagle’s Medium (DMEM) supplemented with 10% fetal bovine serum (FBS), 1% sodium pyruvate, 1% MEM nonessential amino acids (NEAA) without antibiotics. The nontumorigenic breast cell line (MCF-10A) was cultivated in DMEM medium (Sigma-Aldrich, St. Louis, MO, USA) supplemented with 10% FBS, 1% sodium pyruvate, 1% nonessential amino acids (NEAA), 20 ng/mL human epithelia growth factor (hEGF), 10 μg/mL insulin, and 0.5 μg/mL hydrocortisone without antibiotics. All cell lines were maintained in a humidified atmosphere with 5% CO2 at 37 °C.
(§3) Using the standard MTT dye-reduction assay, described by Mosmann the antiproliferative activity was tested. The method is based on the metabolism of the tetrazolium salt MTT to insoluble formazan. The formazan absorption was registered using a microplate reader at λ = 540 nm. The measured absorption is an indicator of cell viability and metabolic activity. Antiproliferative activities were expressed as IC50 values (concentrations required for 50% inhibition of cell growth), calculated using nonlinear regression analysis (GraphPad Software, San Diego, CA, USA).

MDA-MB-231 = settings: results published earlier, read-out: IC50 (MDA-MB-231) of lead compounds A and B; cited from earlier work
MCF-7 = settings: results published earlier, read-out: IC50 (MCF-7) of lead compounds A and B; cited from earlier work
MDA-MB-231 cell line = assay: MTT antiproliferative assay, MDA-MB-231; assay type: cell-based, human; settings: for Selective Index MDA-MB-231: SI = IC50 of MCF-10A/IC50 of MDA-MB-231; for IC50: MDA-MB-231, 72 h, MTT
Description: as §1, §2, §3

[1] = 3T3 Neutral Red Uptake (NRU) cytotoxicity test; assay type: cell-based, mouse; settings: mouse, BALB/3T3 clone A31 cells; for CC50 at 24 h: BALB 3T3, 24 h, no irradiation, read-out: CC50 of Mean ± SD, Cytotoxicity
BALB 3T3 cells = assay: 3T3 NRU phototoxicity test (irradiated); assay type: cell-based, mouse; settings: CC50/PC50; PIF < 2 not phototoxic, ≥ 2 and < 5 probable phototoxicity, ≥ 5 phototoxic
Description: (§4) Some organic compounds exposed to sunlight can be converted into phototoxins as a result of light-induced changes in energy state or degradation of the molecule. The estimation of phototoxicity can serve as an indicator of the photostability of the studied thienopyrimidines when irradiated with UV light and as evidence that their effect on cells is only due to the cytotoxicity and not to phototoxicity. The compounds were studied for cytotoxicity by the 3T3 Neutral Red […] (NRU) phototoxicity test based on a comparison of the cytotoxicity of a chemical when tested in the presence and absence of noncytotoxic exposure to UVA/vis light. The cells were incubated with the test substances at a variable concentration: for compound 4 from 0.5 to 100 μg/mL, and for all the rest from 15 to 4000 μg/mL for 24 h.
(§5) The light source used was a light emitting diode (LED) matrix, an artificial solar light simulator Helios-iO, model LE-9ND55-H—5500K (SERIC Ltd., Tokyo, Japan).
(§6) BALB/3T3 cells were cultured in 75 cm^2 tissue-culture flasks in DMEM, 10% FBS, 2 mM glutamine and antibiotics (penicillin 100 U/mL and streptomycin 100 µg/mL) at 37 °C, 5% CO2 and 90% relative humidity. Cytotoxicity/phototoxicity was assessed by validated BALB/3T3 clone A31 Neutral Red Uptake Assay (3T3 NRU test). Briefly, cells were plated in a 96-well microtiter plate at a density of 1 × 10^4 cells/100 µL/well and were incubated for 24 h. A wide concentration range of the test compounds was applied. In phototoxicity tests, 96-well plates were irradiated with dose 2.4 J/cm^2 and the cells were incubated for additional 24 h. After treatment with Neutral Red medium, washing and treatment with the Ethanol/Acetic acid solution, the absorption was measured on a TECAN microplate reader (TECAN, Grödig, Austria) at wavelength 540 nm.
(§7) Cytotoxicity/phototoxicity were expressed as CC50/PC50 values (concentrations required for 50% cytotoxicity/phototoxicity), calculated using nonlinear regression analysis (GraphPad Software, Prism 8.0.2 (263), San Diego, CA, USA). The CC50 values can be used to calculate the PIF (photoirritancy factor) for each test substance, according to the following formula:PIF = Cytotoxicity (CC50)/Phototoxicity (PC50)(6)

[2] = 3T3 NRU phototoxicity test (irradiated); assay type: cell-based, mouse; settings: mouse, BALB/3T3 clone A31 cells; BALB 3T3, irradiated 2.4 J/cm2, then 24 h; read-out: CC50 of Mean ± SD, Phototoxicity
Description: as §4, §5, §6, §7

MCF-10A cell line = assay: MTT antiproliferative assay, MCF-10A; assay type: cell-based; settings: Homo sapiens, 72 h
Description: as §1
In order to determine antitumor activity, as a reliable model and a control we used the MCF-10A cell line (normal human mammary epithelial cells).
as §2, §3

Aurora B kinase = target: Aurora B kinase; design: method as in PMID 21778056; settings: Figure 1; read-out: Aur B IC50; cited from earlier work
KDR = tested on: KDR; design: method as in doi:10.1016/j.medidd.2019.100009; settings: Figure 1; cited from earlier work
EGFR = tested on: EGFR; design: method as in PMID 31051400; settings: cited from earlier work
Tie-2 = tested on: Tie-2; design: method as in PMID 19854647; settings: Figure 1; read-out: Tie-2 cells IC50; cited from earlier work
VEGER = tested on: VEGER; design: method as in PMID 30343204; settings: Figure 1; cited from earlier work
FGFR1 = settings: Figure 1; cited from earlier work
ABC efflux pumps = tested on: ABC efflux pumps; design: method as in PMID 19783433; settings: Figure 1; read-out: EC50 in the daunorubicin accumulation assay; cited from earlier work
[3] = MCF-7, 72 h, MTT, read-out: IC50 Antiproliferative Activity MCF-7 in µM (converted)
[4] = MCF-7, 72 h, MTT, read-out: IC50 ± SD Antiproliferative Activity MCF-7
[5] = read-out: IC50 Antiproliferative Activity MCF-10A (converted)
[6] = read-out: IC50 ± SD Antiproliferative Activity MCF-10A
[7] = Homo sapiens, read-out: IC50 Antiproliferative Activity MDA-MB-231 in µM (converted)
[8] = Homo sapiens, read-out: IC50 ± SD Antiproliferative Activity MDA-MB-231

SMILES: CCOC(=O)c1sc2nc(CCn3c(=N)n(CCc4nc5sc(C(=O)OC)c(C)c5c(=O)[nH]4)c4ccccc43)[nH]c(=O)c2c1C [A]
- IC50 (MCF-7 cell line; read-out: pCI50 in MCF-7 test (converted)): 0.0741 µM
- IC50 (MDA-MB-231): 0.16 µM
- IC50 (MCF-7): 0.074 µM

SMILES: CCOC(=O)c1sc2nc(CCn3c(=N)[nH]c4ccccc43)[nH]c(=O)c2c1C [B]
- IC50 (MDA-MB-231): 0.32 µM
- IC50 (MCF-7): 0.21 µM

SMILES: N.N.[Cl][Pt][Cl] [Cisplatin, reference compound]
- Selective Index MCF-7 (MCF-7 cell line; SI = IC50 of MCF-10A/IC50 of MCF-7): 2.36
- Selective Index MDA-MB-231 (MDA-MB-231 cell line): 25

SMILES: CCOC(=O)c1sc2nc(Cc3ccccc3)nc(N)c2c1C [Compound 2, Ethyl 4-Amino-2-benzyl-5-methyl-thieno[2,3-d]pyrimidine-6-carboxylate]
- IC50 (MCF-7 cell line; [3]): 13 µM
- IC50 (MCF-7 cell line; [4]): 4.3 ± 0.11 µg/mL
- melting point: 159 to 161 °C
- CC50 at 24 h [1]: 1210 ± 103 µg/mL (≈ 3700 µM)
- PIF (Photoirritancy factor) (BALB 3T3 cells): 1.9
- CC50 at 24 h [2]: 632 ± 35.6 µg/mL (≈ 1930 µM)
- IC50 (MCF-10A cell line; [5]): 210 µM
- IC50 (MCF-10A cell line; [6]): 67.8 ± 9.1 µg/mL
- IC50 (MDA-MB-231 cell line; [7]): 56 µM
- IC50 (MDA-MB-231 cell line; [8]): 18.3 ± 1.58 µg/mL
- Selective Index MDA-MB-231 (MDA-MB-231 cell line): 3.7

SMILES: CCOC(=O)c1sc2nc(Cc3ccc([N+](=O)[O-])cc3)nc(N)c2c1C [Compound 3, Ethyl 4-Amino-5-methyl-2-(4-nitrobenzyl) Thieno [2,3-d] Pyrimidine-6-carboxylate]
- IC50 (MCF-7 cell line; [3]): 23 µM
- IC50 (MCF-7 cell line; [4]): 8.58 ± 0.55 µg/mL
- CC50 at 24 h [1]: 1160 ± 57.8 µg/mL (≈ 3100 µM)
- CC50 at 24 h [2]: 578 ± 58.7 µg/mL (≈ 1550 µM)
- IC50 (MCF-10A cell line; [5]): 440 µM
- IC50 (MCF-10A cell line; [6]): 165 ± 8.81 µg/mL
- IC50 (MDA-MB-231 cell line; [7]): 250 µM
- IC50 (MDA-MB-231 cell line; [8]): 98.2 ± 4.73 µg/mL
- IC50 (MDA-MB-231 cell line; read-out: IC50 Antiproliferative Activity MDA-MB-231 in µM (converted)): 260 µM

SMILES: CCOC(=O)c1sc2nc(-c3cc(OC)c(OC)c(OC)c3)nc(N)c2c1C [Compound 4, Ethyl 4-Amino-5-methyl-2-(3,4,5-trimethoxyphenyl)thieno [2,3-d]Pyrimidine-6-carboxylate]
- IC50 (MCF-7 cell line; [3]): 5 µM
- IC50 (MCF-7 cell line; [4]): 2.01 ± 0.07 µg/mL
- CC50 at 24 h [1]: 8.37 ± 0.6 µg/mL (≈ 20.7 µM)
- PIF (Photoirritancy factor) (BALB 3T3 cells): 0.7
- CC50 at 24 h [2]: 11.8 ± 0.8 µg/mL (≈ 29.4 µM)
- IC50 (MCF-10A cell line; [5]): 6.8 µM
- IC50 (MCF-10A cell line; [6]): 2.74 ± 0.13 µg/mL
- IC50 (MDA-MB-231 cell line; [7]): 16 µM
- IC50 (MDA-MB-231 cell line; [8]): 6.43 ± 0.95 µg/mL

SMILES: CCOC(=O)c1sc2nc(-c3ccccn3)nc(N)c2c1C [Compound 7, Ethyl 4-Amino-5-methyl-2-(pyridin—2-yl) Thieno[2,3-d]pyrimidine-6-carboxylate]
- IC50 (MCF-7 cell line; [4]): > 1000 µg/mL
- melting point: 262 to 264 °C
- CC50 at 24 h [1]: 2750 ± 64.3 µg/mL (≈ 8760 µM)
- IC50 at 24 h ([1]; BALB 3T3, converted from µg/mL, read-out: IC50 cytotoxicity against BALB 3T3): 8800 µM
- PIF (Photoirritancy factor) (BALB 3T3 cells): 1.08
- CC50 at 24 h [2]: 2550 ± 75.1 µg/mL (≈ 8120 µM)
- IC50 (MCF-10A cell line; [6]): > 1000 µg/mL
- IC50 (MDA-MB-231 cell line; [8]): > 1000 µg/mL

SMILES: CCOC(=O)c1sc2nc(-c3cccnc3)nc(N)c2c1C [Compound 8, Ethyl 4-Amino-5-methyl-2-(pyridin-3-yl)thieno [2,3-d]Pyrimidine-6-carboxylate]
- melting point: 241 to 242 °C

SMILES: Cc1ccccc1NC(=O)NCc1cccc(NC(=O)c2csc3ncnc(N)c23)c1 [III]
- IC50 (Aurora B kinase): 0.0038 µM

SMILES: Cc1sc2ncnc(N)c2c1C(=O)Nc1ccc(NC(=O)Nc2ccccc2)cc1 [II]
- IC50 (Aurora B kinase): 0.0002 µM

SMILES: Cc1cccc(NC(=O)Nc2ccc(-c3csc4ncnc(N)c34)cc2)c1 [IV]
- IC50 (KDR): 0.003 µM

SMILES: C=CC(=O)N1CCc2c(sc3ncnc(NC(CO)c4ccccc4)c23)C1 (stereo not shown) [IX]
- IC50 (EGFR; Figure 1): 0.008 µM

SMILES: Cn1cnc(-c2cccc(NC(=O)Nc3cc(C(F)(F)F)ccc3F)c2)c1-c1cc2c(N)ncnc2s1 [I]
- IC50 (Tie-2): 0.07 µM

SMILES: CC(=O)c1cccc(NC(=O)Nc2ccc(Nc3ncnc4sc5c(c34)CCCC5)cc2)c1 [VIII]
- IC50 (VEGER): 1.5 µM

SMILES: Oc1cccc(Nc2ncnc3sc(-c4ccccc4)cc23)c1 [VII]
- IC50 (FGFR1): 0.16 µM

SMILES: Oc1cccc(Nc2ncnc3scc(-c4ccccc4)c23)c1 [VI]
- IC50 (FGFR1): 0.18 µM

SMILES: Nc1nc(SCCc2ccccc2)nc2sc3c(c12)CCCC3 [V]
- EC50 (ABC efflux pumps): 1.02 µM

SMILES: Fc1ccccc1Nc1ncnc2sc3c(c12)CCCC3 [X]
- EGFR/HER2 inhibitory activity IC50 (in words) (EGFR): in the nanomolar range
